Source: patent US20250241908A1 (SHANGHAI YAO YUAN BIOTECHNOLOGY CO., LTD., priority 2022, published 2025)
Like-named read-outs stand apart in the source and are kept apart here. One block for each molecule: values may come before it.

Legend:
[1] = target: ALPK1 (Homo sapiens (Human), UniProt Q96QP1); test: ALPK1 in vitro kinase assay (HTRF, TIFA phosphorylation); format: biochemical; conditions: HTRF of HA-tagged TIFA; ALPK1 2 nM; ADP-Heptose as activator
[2] = system: innate immunity gene expression following ALPK1 activation; test: Inhibition of ALPK1 in coronary artery, aorta, and heart muscle; format: in vivo, Sprague-Dawley (SD) rats; conditions: SD rats, 40 mpk oral, ALPK1 agonist ip 2 h later, tissue 3 h after agonist; compared with vehicle group
[3] = system: ALPK1-TIFA pathway target gene mRNA in HASMC; test: Primary Human Aorta Smooth Muscle Cell-based assay; conditions: for IC50: Homo sapiens, HASMC stimulated with ALPK1 agonist
Protocol: Primary Human Aorta smooth muscle Cells (HASMC) grow in Smooth muscle Cell Basal Media supplemented with Smooth Muscle Cell Growth Kit components (PriMed-iCell-002, iCell), provide an ideal cell system to propagate HASMC.
Briefly, primary HASMC were seeded at a density of 25000 cells per well to a collagen coated 24-well culture plate. […] Total RNA was extracted using the RNeasy mini kit method and reverse-transcribed. The mRNA expression levels of target genes were detected by SYBR green gene expression assays. Expression levels of mRNA were normalized to HPRT. Relative expression was calculated by comparing to vehicle control and the values were plotted as fold induction. All activity results were expressed as the mean of triplicate determinations. IC50 was determined from dose response curve using Prism Software, version 6.00 from GraphPad Software.

[4] = system: PCL induced atherosclerosis in ApoE knockout mice; test: ApoE mice, high fat diet, Partial Carotid Ligation atherosclerosis model; format: in vivo, mouse; conditions: high fat diet, 1, 3, 9 mg/kg oral once daily for 2 weeks from PCL surgery
Text: To determine the efficacy of ALPK1 inhibitor in atherosclerosis, we treat the ApoE mice with High Fat Diet (Research Diet, D12109C), and perform Partial Carotid Ligation (PCL) surgery on left Carotid artery as described previously (Zhang, Chenghu et al. “Coupling of Integrin a5 to Annexin A2 by Flow Drives Endothelial Activation.” Circulation research vol. 127, 8 (2020): 1074-1090) to accelerate the development of atherosclerosis. […] Two weeks later, the carotid artery of ligated side was collected, the contralateral carotid from vehicle group were served as control. The carotid was fixed and sectioned. The wall thicknesses were quantified by software.

[5] = system: carotid artery of Guinea Pig after PCL surgery; test: Guinea pig, high fat diet, Partial Carotid Ligation model; format: in vivo; conditions: 6 weeks high fat diet
[6] = system: ALPK1-TIFA-IL1β pathway in THP-1-derived macrophage cells; test: PMA-differentiated THP-1 cell based assay; conditions: for IC50: Homo sapiens, PMA-differentiated THP-1 cells stimulated with ALPK1 agonist
Protocol: We evaluated the ability of ALPK1 inhibitors to suppress IL1β, IL8 and TNF-α levels following ALPK1 activation in THP-1-derived macrophage cells. […] Inhibitory activity is measured as suppression of IL1β.
THP-1 cells were cultured in RPMI 1640 containing 10% heat inactivated FBS, penicillin (100 units/ml) and streptomycin (100 μg/ml), and maintained in a humidified incubator with 95% atmospheric air and 5% CO2. Prior to the experiment, THP-1 cells were seeded into 24-well flat-bottom plate at a cell density of 40,0000 cells/well. Phorbol myristate acetate (PMA; 50 ng/ml) was used to treat THP-1 cells for 48 h, and then THP-1-derived macrophages were obtained. […] Total RNA was extracted using the TRIzol method and reverse-transcribed. The mRNA expression levels IL1β, IL8 and TNF-α were detected by SYBR green gene expression assays. Expression levels of mRNA were normalized to GAPDH. Relative expression was calculated by comparing to vehicle control and the values were plotted as fold induction. All activity results were expressed as the mean of triplicate determinations. IC50 was determined from dose response curve using Prism Software, version 6.00 from GraphPad Software.

[7] = system: ALPK1-dependent gene expression in PBMC; test: Inhibition of ALPK1 in PBMC cells; format: in vivo, Sprague-Dawley (SD) rats; conditions: SD rats, 10 mpk oral, ALPK1 agonist ip 2 h later, blood 3 h after agonist; compared with vehicle group
Protocol: We examined whether ALPK1 inhibitors can suppress ALPK1-dependent activation of a set of such genes in rats. […] PBMCs were collected and gene expression analyzed, as described in more detail below.
After 3 hours administration of the ALPK1 agonist, the blood was collected from heart, and PBMC were extracted from each group.

[8] = system: OSS-induced inflammatory signaling in ECs (HUVECs); test: Oscillatory shear stress (OSS) in HUVECs; format: cell-based, human; conditions: oscillatory flow 0.5±4 dyn/cm2 for 6 hours, 300 nM
Protocol: For flow experiments, confluent monolayers of HUVECs were seeded on glass slides, Static condition (ST) without any treatment served as control and a parallel plate flow system was used to impose oscillatory flow (0.5±4 dyn/cm2) for 6 hours.

ALPK1, sequence (Q96QP1 whole entry): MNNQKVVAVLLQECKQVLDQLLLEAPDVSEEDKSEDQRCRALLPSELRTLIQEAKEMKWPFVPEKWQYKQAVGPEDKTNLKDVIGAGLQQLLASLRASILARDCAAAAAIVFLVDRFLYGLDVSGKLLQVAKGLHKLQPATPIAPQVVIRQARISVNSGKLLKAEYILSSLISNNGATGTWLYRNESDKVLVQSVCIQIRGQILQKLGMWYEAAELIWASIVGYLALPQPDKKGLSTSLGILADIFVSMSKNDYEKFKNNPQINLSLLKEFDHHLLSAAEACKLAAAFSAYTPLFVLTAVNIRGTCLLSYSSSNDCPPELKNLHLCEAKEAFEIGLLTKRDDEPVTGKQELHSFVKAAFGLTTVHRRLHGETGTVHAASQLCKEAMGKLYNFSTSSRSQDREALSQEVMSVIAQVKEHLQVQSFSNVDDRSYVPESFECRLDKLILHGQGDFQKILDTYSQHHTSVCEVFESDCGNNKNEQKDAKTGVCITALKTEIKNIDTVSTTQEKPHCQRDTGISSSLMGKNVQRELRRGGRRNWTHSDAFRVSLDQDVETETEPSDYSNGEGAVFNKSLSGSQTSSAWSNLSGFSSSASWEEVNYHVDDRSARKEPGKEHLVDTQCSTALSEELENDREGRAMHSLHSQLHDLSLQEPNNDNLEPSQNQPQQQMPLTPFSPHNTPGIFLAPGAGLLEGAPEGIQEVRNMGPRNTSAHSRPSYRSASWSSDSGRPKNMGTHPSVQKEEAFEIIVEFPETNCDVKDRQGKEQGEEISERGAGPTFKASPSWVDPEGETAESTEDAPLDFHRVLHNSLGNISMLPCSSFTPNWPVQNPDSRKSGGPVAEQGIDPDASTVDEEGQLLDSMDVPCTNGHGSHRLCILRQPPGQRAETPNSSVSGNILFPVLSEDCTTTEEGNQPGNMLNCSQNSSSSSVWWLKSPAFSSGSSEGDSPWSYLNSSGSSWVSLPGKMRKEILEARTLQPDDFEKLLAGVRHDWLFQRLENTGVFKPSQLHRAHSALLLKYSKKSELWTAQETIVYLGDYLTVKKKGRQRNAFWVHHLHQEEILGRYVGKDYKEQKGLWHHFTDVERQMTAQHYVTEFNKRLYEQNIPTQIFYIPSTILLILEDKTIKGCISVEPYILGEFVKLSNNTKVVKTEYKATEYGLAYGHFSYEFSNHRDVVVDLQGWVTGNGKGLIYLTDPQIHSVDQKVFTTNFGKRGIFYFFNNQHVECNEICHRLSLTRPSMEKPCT

Compound: COc1ccc(C(C)(C)c2csc(NC(=O)c3ccc(N4CCNCC4C)cc3)n2)cc1 (centres unmarked) [Compound B014]
- IC50 [1]: 300 nM

Compound: COc1ccc(C(C)(C)c2csc(NC(=O)c3ccc(N4CCNCC4)cn3)n2)cc1 [Compound B044, N-(4-(2-(4-methoxyphenyl)propan-2-yl)thiazol-2-yl)-5-(piperazin-1-yl)picolinamide]
- IC50 [1]: 213 nM

- IC50 ([3]; read-out: IC50 ICAM-1 mRNA): 47 nM
- IC50 ([3]; read-out: IC50 IL8 mRNA): 110 nM
- IC50 ([3]; read-out: IC50 TIFA mRNA): 115 nM
- IC50 ([3]; read-out: IC50 VCAM-1 mRNA): 38 nM
Compound: C#C[C@@](C)(c1ccc(Cl)cc1)c1csc(NC(=O)c2c(F)cc(N3CCNCC3)cc2F)n1 [Compound C008, (S)-N-(4-(2-(4-chlorophenyl)but-3-yn-2-yl)thiazol-2-yl)-2,6-difluoro-4-(piperazin-1-yl)benzamide]
- mRNA expression of aorta IL-6, CXCL-1, CXCL-10, CCL-2 [2]: significantly decreased
- mRNA expression of cardiac muscle TNF-α, IL-1b, IL-6, CXCL-1, CXCL-10, CXCL-11, CCL-2 and CCL-5 [2]: significantly decreased
- mRNA expression of coronary artery TNF-α, CXCL-1, CCL-2 and CCL-7 [2]: significantly decreased
- IL8, TIFA, ICAM-1, VCAM-1 mRNA levels induced by ALPK1 activation ([3]; HASMC): dose dependently inhibited
- PCL induced atherosclerosis (carotid artery wall thickness) [4]: dose dependently inhibited
- fibrosis area percentage of the carotid artery (Masson staining) [5]: decreased
- liver CYP7A1 expression [5]: elevated CYP7A1 expression dose dependently
- total plasma cholesterol level [5]: dose dependently decreased
- wall thickness of the carotid artery (Masson staining) [5]: decreased
- IC50 ([6]; read-out: IL-8 mRNA IC50): 6 nM
- IC50 ([6]; read-out: TNF-α mRNA IC50): 9 nM
- inhibition of IL1β induced by ALPK1 activation ([6]; THP-1-derived macrophages): potent inhibition
- inhibition of IL8 and TNF-α mRNA induced by ALPK1 activation ([6]; THP-1-derived macrophages): potent inhibition
- PBMC mRNA expression for CCL-7, CXCL-1, CXCL-10, CXCL-11, IL-1β, TNF-α and IL-6 [7]: significant decreases
- OSS-induced inflammatory signaling in ECs (E-selectin and inflammatory cytokine mRNA) [8]: reduced

Compound: C#C[C@@](C)(c1ccc(Cl)cc1)c1csc(NC(=O)NCCO)n1 [Compound A176, (S)-1-(4-(2-(4-chlorophenyl)but-3-yn-2-yl)thiazol-2-yl)-3-(2-hydroxyethyl)urea]
- inhibition of IL1β induced by ALPK1 activation ([6]; THP-1-derived macrophages): potent inhibition
- PBMC mRNA expression for CCL-2, CCL-7, CXCL-1, CXCL-10, CXCL-11 and IL-1β [7]: significant decreases
